Where “and” joins values, the source holds several entries; their conditions need not be identical. Equal values may be shown once.
Experiments:
male Balb/c mice = test: Effect on increasing erythrocyte of normal mice: reticulocyte (RETIC) count; format: in vivo; conditions: four hours after the last administration; for RETIC, individual mice (Mice No. 1-8): one value per mouse; for RETIC, Average: orbital blood
Procedure: Biological Example 3: Effect of the Compounds of the Present Invention on Increasing Erythrocyte of Normal Mice
80 male Balb/c mice were divided into 11 groups, with 8 animals for each drug group, 10 animals for blank control group. Drug group: AKB-6548, 100 mg/kg, oral administration, once a day×3; FG-4592, 25 mg/kg, oral administration, once a day×3; EPO, 100 IU/kg, Day 1 and Day 3, subcutaneous injection, as positive control groups. Each of the compounds of the present invention was orally administrated at 25 mg/kg, once a day×3. Four hours after the last administration, orbital blood of all animals were collected and treated with EDTA-K2 anticoagulant, and reticulocytes (RETIC) were counted with a blood cell automated analyzer.

hepatoma cells Hep3B = test: Promotion of erythropoietin (EPO) expression in hepatoma cells Hep3B in vitro (ELISA); format: cell-based, Human; conditions: Hep3B supernatant, 24 hours, test doses 100 μmol/L and 10 μmol/L (dose of the tabulated value not given)
Source text: Biological Example 1: Development and Screening of In Vitro Detection Methods: Promotion of Erythropoietin Expression in Hepatoma Cells Hep3B In Vitro by HIF-PHD2 Inhibitor Compounds
The complete medium for culture of Experimental hepatoma cells Hep3B (China Center for Type Culture Collection, CCTCC) was MEM (Cat# GNM 41500, GIBCO, provided by Hangzhou Genom Biopharmaceutical Technology Co., Ltd) supplemented with 10% serum FBS (Cat#10099-141, GIBCO) and 1% P/S (Cat#GNM15140, provided by Hangzhou Genom Biopharmaceutical Technology Co., Ltd). Cells were cultured in a 37° C., 5% CO2 incubator. Experimental reagents included dimethyl sulfoxide (for molecular biology, >=99.9%, Catalog # D8418) purchased from Sigma. The ELISA kit was purchased from Quantikine IVD ELISA, Human Erythropoietin (R&D, DEP00). The test control AKB-6548 was prepared by the inventors or obtained by commercial purchase. The test substance was stored at −20° C. in the dark.
The test substance and the positive control substance were fully dissolved in sterile water or dimethylsulfoxide under dark conditions and prepared into a stock solution at a concentration of 10^−1 mol/L or 10^−2 mol/L. Each of the stock solutions was stored at −20° C. MEM medium containing 0.5% FBS was used as a diluent to dilute the stock solution of the test substance, to prepare a diluted test substance at a concentration of 100 μmol/L and 10 μmol/L. To a 96-well culture plate was added 200 μl/well (1.5 or 2.0×10^4 cells/well) of hepatoma cells Hep3B complete medium suspension and incubated overnight at 37° C. in a 5% CO2 incubator. The solution in the 96-well culture plate was removed and the cells were washed once with the MEM medium containing 0.5% FBS. 200 μl/well of the test substance was added in the dark, at a dose of 100 μmol/L and 10 μmol/L, and each dose set 2 wells, a test well and a spare well. A cell control well was prepared by replacing the test solution with the diluent (without test substance and solvent). A solvent control well was prepared by replacing the test solution with the diluent containing the corresponding concentration of solvent (dimethylsulfoxide) (without test substance). They were cultured in a 5% CO2 incubator at 37° C. for 24 hours. The supernatant was absorbed as a sample and cryopreserved at −20° C. for use. 100 μl/well of stop solution was added. OD value was detected by microplate reader A450 nm-A600 nm. The expression level of EPO (mIU/mL) promoted by the test substance was obtained according to the standard curve.

[1] = target: HIF Prolyl hydroxylases 2 (PHD2) (Homo sapiens, UniProt Q9GZT9); test: PHD2 inhibition, fluorescence polarization (FP) detection of HIF-1α / VBC complex interaction; format: biochemical; conditions: PHD2 0.5 μg/μl, FAM-HIF (556-575) 1 μM, 30 minutes room temperature
Procedure: The interaction between hypoxia-inducible factor HIF-1α and VBC complex (von Hippel-Lindau protein-Elongin B-Elongin C, VBC) was detected by Fluorescence polarization (FP) method, to measure the enzyme inhibitory activity of the HIF Prolyl hydroxylases 2 (PHD2) inhibitor compounds.
Subsequently, the desired concentration of the test compound or the positive compound was added (the compound was replaced by the buffer in the negative control and the positive control). Finally, PHD2 was added at a final concentration of 0.5 μg/μl (PHD2 was replaced by the buffer in the negative control). They were mixed well and allowed to stand at room temperature for 30 minutes in the dark followed by 95° C. water bath for 1 minute, and then the reaction was terminated. After the temperature drops to room temperature, the sample was prepared well for use. EBC buffer (50 mM Tris.HCl, 120 mM NaCl, 0.5% NP-40) was added to the corresponding wells of a black 96-well test plate. A GST-VBC complex was added to the corresponding test wells at a final concentration of 300 nM (using the wells containing only EBC buffer as blank wells). Subsequently, the corresponding PHD2 prolyl hydroxylation reaction sample was added in the dark as a substrate with a final concentration of 100 nM. After mixing well, the lateral and longitudinal fluorescence intensity values were measured using a full-wavelength multifunctional microplate reader (TECAN infinite M1000) at an excitation wavelength of […] and an emission wavelength of 518 nm.
The fluorescence polarization (mP) was calculated: mP=1000×(lateral value−G factor×longitudinal value)/(lateral value+G factor×longitudinal value) wherein, lateral value=lateral fluorescence intensity value of test well−lateral fluorescence intensity value of blank well, longitudinal value=longitudinal fluorescence intensity value of test well−longitudinal fluorescence intensity value of blank well, […]
The IC50 was calculated using the non-linear regression data analysis method of Graphpad Prism 4.0 software ([…]).

[2] = 100 IU/kg, subcutaneous injection, Day 1 and Day 3

Chain of HIF Prolyl hydroxylases 2 (PHD2) (Q9GZT9 whole entry, species assumed): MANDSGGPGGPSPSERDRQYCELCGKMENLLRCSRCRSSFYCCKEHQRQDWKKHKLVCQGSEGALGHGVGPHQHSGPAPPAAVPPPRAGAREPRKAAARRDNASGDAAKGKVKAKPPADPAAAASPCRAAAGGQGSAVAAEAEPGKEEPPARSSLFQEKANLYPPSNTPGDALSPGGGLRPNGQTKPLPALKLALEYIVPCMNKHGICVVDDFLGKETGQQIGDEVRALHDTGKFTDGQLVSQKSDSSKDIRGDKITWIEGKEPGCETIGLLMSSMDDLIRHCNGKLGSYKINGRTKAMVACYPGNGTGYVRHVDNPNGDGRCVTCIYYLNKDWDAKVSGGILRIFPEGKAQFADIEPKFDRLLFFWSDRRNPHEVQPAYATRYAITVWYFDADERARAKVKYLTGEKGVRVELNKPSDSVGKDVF

Row | Compound | EPO level of the test substance (hepatoma cells Hep3B) | IC50 [1] | also measured
1 | N#Cc1ccc(-c2cnc(C(=O)NCC(=O)O)c(O)c2)cc1 [AKB-6548, reference compound] | 0.13 mIU/mL |  | RETIC, individual mice (Mice No. 1-8) (male Balb/c mice; 100 mg/kg, oral, once a day × 3, listed as AKB-6548-A): 5.3 (2×) and 6.1 and 4 (2×) and 4.2 (2×) and 4.9; RETIC, Average (male Balb/c mice; 100 mg/kg, oral, once a day × 3): 4.75
2 | Cc1nc(C(=O)NCC(=O)O)c(O)c2ccc(Oc3ccccc3)cc12 [FG-4592, reference compound] | 0.378 mIU/mL |  | RETIC, individual mice (Mice No. 1-8) (male Balb/c mice; 25 mg/kg, oral, once a day × 3, listed as FG-4592-A): 3.6 and 3.8 (2×) and 4 (2×) and 3.5 and 4.4 and 3.4; RETIC, Average (male Balb/c mice; 25 mg/kg, oral, once a day × 3): 3.73
3 | O=C(O)CNC(=O)c1ncc2nc(-c3ccc4ccccc4c3)ccc2c1O [Compound 19, [(5-hydroxy-2-(naphthalen-2-yl)-[1,7]naphthyridine-6-carbonyl)-amino]-acetic acid] | 9.786 mIU/mL | 7.5 µM | 
4 | COc1cccc(-c2ccc3c(O)c(C(=O)NCC(=O)O)ncc3n2)c1 [Compound 15] | 6.316 mIU/mL | 7.7 µM | RETIC, individual mice (Mice No. 1-8) (male Balb/c mice; 25 mg/kg, oral, once a day × 3): 4.9 (3×) and 4.6 and 4.1 and 3.7 and 3.8 and 3.1; RETIC, Average (male Balb/c mice; 25 mg/kg, oral, once a day × 3): 4.25
5 | COc1ccc(-c2ccc3c(O)c(C(=O)NCC(=O)O)nc(C)c3n2)cc1 [Compound 10, 2-{5-hydroxy-8-methyl-[2-(4-methoxy)-phenyl]-[1,7]-naphthyridine-6-formamido} acetic acid] | 0.64 mIU/mL | 63 µM | 
6 | COc1ccc(-c2ccc3c(O)c(C(=O)NCC(=O)O)ncc3n2)cc1 [Compound 2, 2-{5-hydroxy-[2-(4-methoxy)-phenyl]-[1,7]-naphthyridine-6-formamido} acetic acid] | 0.64 mIU/mL | 11 µM | 
7 | O=C(O)CNC(=O)c1ncc2nc(-c3ccc(Br)cc3)ccc2c1O [Compound 17, 2-{5-hydroxy-[2-(4-bromo)-phenyl)-[1,7]-naphthyridine-6-formamido} acetic acid] | 7.757 mIU/mL | 20 µM | 
8 | O=C(O)CNC(=O)c1ncc2nc(-c3cccc(Br)c3)ccc2c1O [Compound 13, 2-{5-hydroxy-2-(3-bromophenyl)-[1,7]-naphthyridine-6-formamido} acetic acid] | 0.832 mIU/mL | 0.41 µM | 
9 | Cc1nc(C(=O)NCC(=O)O)c(O)c2ccc(-c3ccc(Cl)cc3)nc12 [Compound 3, 2-{5-hydroxy-[2-(4-chloro)-phenyl]-8-methyl-[1,7]-naphthyridine-6-formamido} acetic acid] | 0.52 mIU/mL | 85 µM | 
10 | Cc1nc(C(=O)NCC(=O)O)c(O)c2ccc(-c3cccc([N+](=O)[O-])c3)nc12 [Compound 21, 2-{5-hydroxy-[2-(3-nitro)-phenyl]-8-methyl-[1,7]-naphthyridine-6-formamido} acetic acid] | 0.325 mIU/mL | 14 µM | 
11 | Cc1nc(C(=O)NCC(=O)O)c(O)c2ccc(-c3cccc(Br)c3)nc12 [Compound 12, 2-{5-hydroxy-[2-(3-bromo)-phenyl]-8-methyl-[1,7]-naphthyridine-6-formamido} acetic acid] | 4.536 mIU/mL | 4.1 µM | 
12 | O=C(O)CNC(=O)c1ncc2nc(-c3ccc(Cl)cc3)ccc2c1O [Compound 8] | 0.68 mIU/mL | 43 µM | 
13 | Cc1nc(C(=O)NCC(=O)O)c(O)c2ccc(-c3ccc(C#N)cc3)nc12 [Compound 22, 2-{5-hydroxy-[2-(4-cyano)-phenyl]-8-methyl-[1,7]-naphthyridine-6-formamido} acetic acid] | 0.53 mIU/mL | 9.3 µM | 
14 | Cc1nc(C(=O)NCC(=O)O)c(O)c2ccc(-c3ccc(C(C)(C)C)cc3)nc12 [Compound 11, 2-{5-hydroxy-8-methyl-[2-(4-tert-butyl)-phenyl]-[1,7]-naphthyridine-6-formamido} acetic acid] | 4.158 mIU/mL | 39 µM | 
15 | Cc1nc(C(=O)NCC(=O)O)c(O)c2ccc(-c3cccnc3)nc12 [Compound 5, 2-{5-hydroxy-8-methyl-[2-(3-pyridyl)]-[1,7]-naphthyridine-6-formamido} acetic acid] | 1.89 mIU/mL | 1.7 µM | 
16 | O=C(O)CNC(=O)c1ncc2nc(-c3ccccc3)ccc2c1O [Compound 1] | 0.71 mIU/mL | 18 µM | 
17 | CC(C)(C)c1ccc(-c2ccc3c(O)c(C(=O)NCC(=O)O)ncc3n2)cc1 [Compound 16] | 7.046 mIU/mL | 48 µM | 
18 | EPO: erythropoietin, glycoprotein hormone; positive control given by subcutaneous injection |  |  | RETIC, individual mice (Mice No. 1-8) (male Balb/c mice; [2]): 5 and 5.9 and 2.5 and 2.2 (2×) and 2.6 and 4.3 and 5.1; RETIC, Average (male Balb/c mice; [2]): 3.73
19 | COc1cccc(-c2ccc3c(O)c(C(=O)NCC(=O)O)nc(C)c3n2)c1 [Compound 4, 2-{5-hydroxy-[2-(3-methoxy)-phenyl]-8-methyl-[1,7]-napthyridine-6-formamido} acetic acid] | 1.512 mIU/mL | 6.9 µM | 
20 | O=C(O)CNC(=O)c1ncc2nc(-c3cccc(F)c3)ccc2c1O [Compound 20, 2-{5-hydroxy-[2-(3-fluoro)-phenyl]-[1,7]-naphthyridine-6-formamido} acetic acid] | 10.685 mIU/mL | 0.82 µM | 
21 | O=C(O)CNC(=O)c1ncc2nc(-c3cccs3)ccc2c1O [Compound 18] | 8.888 mIU/mL | 5.7 µM | 
